Source: patent US20070128193A1, “GLP-1 agonists, compositions, methods and uses” (priority 2004, published 2007)
Where no end group is shown, it is not given here.

Experiments:
[1] = administered subcutaneously; cited from earlier work
[2] = system: RINm cells; experiment: Insulin secretion in RINm cells; type: cell-based; settings: peptides 0-5 nM; mimetibodies 5 or 50 nM
Procedure: GLP-1 mimetibody causes insulin secretion in RINm cells. To test the effect of GLP-1 mimetibody in insulin secretion, RINm cells were treated with increasing concentrations of GLP-1 (7-36) peptide (0-5 nM) (FIG. 6A), exendin-4 peptide (0-5 nM) (FIG. 6A), or various GLP-1 mimetibodies (5 or 50 nM) and the amount of insulin secreted was measured via ELISA. All GLP-1 mimetibodys tested had activities in stimulating insulin secretion in RINm cells.

[3] = biological target: T1, DPP-IV (Homo sapiens, UniProt P27487); experiment: DPP-IV cleavage assay; type: in vitro ADME; settings: 1.2 nM, DPP-IV 1 μg/mL, room temperature, 0-40 minutes
T1 construct: purchased R&D Systems
Procedure: DPP-IV cleavage assay. Since GLP-1 is rapidly inactivated by DPP-IV, an in vitro assay was established to quantitate intact (i.e. uncleaved) GLP-1 mimetibody. Briefly, GLP-1 mimetibody or peptide (1.2 nM) was incubated at room temperature with DPP-IV (1 μg/mL, R&D Systems). After various times (0, 5, 10, 15, 20, 30, 40 minutes), a DPP-IV inhibitor (100 μM, Linco) was added to quench the reaction. The amount of intact GLP-1 mimetibody or peptide was measured using the GLP-1 Active ELISA (Linco) and the GLP-1 mimetibody or peptides for the respective standard curves.

[4] = system: control HEK293 cells; experiment: FACS binding assay, control HEK293 cells; settings: 20 nM, 2 hours at 4° C.
[5] = Human serum stability assay; type: in vitro ADME; settings: 30 nM, 37° C.
Procedure: Human Serum stability assay. The stability of the GLP-1 mimetibody in serum was also measured to ensure that other serum proteases were not able to cleave and inactivate the GLP-1 mimetibody. Briefly, GLP1 peptide or the GLP1 mimetibody (30 nM) was incubated in human serum at 37° C. After various times, samples were evaluated to determine the amount of intact peptide or mimetibody. The reactions were quenched with a DPP-IV inhibitor (100 μM, Linco), and the samples were analyzed using the GLP-1 Active ELISA from Linco.

[6] = biological target: T2, GLP-1R (Homo sapiens, UniProt P43220); experiment: FACS binding assay, HEK293 cells over-expressing GLP-1R; settings: 20 nM, 2 hours at 4° C.
T2 construct: expressed in transfected cells; host or cells: HEK293
Procedure: FACS Binding Assay. The activity of GLP-1 mimetibody was tested in an in vitro FACS binding assay. To determine whether the GLP-1 mimetibody binds GLP-1R, HEK293 cells (1×10^6 cells) over-expressing GLP-1R were incubated with GLP-1 mimetibody (20 nM) for 2 hours at 4° C. The cells were washed, and a fluorescently labeled secondary detection antibody (1 μg/mL goat anti-human IgG, Fc gamma specific) was added for 30 minutes at 4° C. The fluorescence intensity of the cells was monitored via flow cytometry.

[7] = system: db/db mice; experiment: Fasting blood glucose in db/db mice; type: in vivo
Procedure: GLP-1 mimetibody lowers glucose level in db/db mice. […] Blood glucose was monitored 0.5, 1, 2, 3, and 4 hours post-dosing. […] In addition, consistent with the mechanism of action for GLP-1, the maximum glucose lowering effect achieved at 0.19 nmol was not enhanced by a higher dose of the GLP-1 mimetibody (1.9 nmol). The maximum glucose lowering effect maintained blood glucose values within the normal range.

T2 sequence (P43220 24-463, species assumed): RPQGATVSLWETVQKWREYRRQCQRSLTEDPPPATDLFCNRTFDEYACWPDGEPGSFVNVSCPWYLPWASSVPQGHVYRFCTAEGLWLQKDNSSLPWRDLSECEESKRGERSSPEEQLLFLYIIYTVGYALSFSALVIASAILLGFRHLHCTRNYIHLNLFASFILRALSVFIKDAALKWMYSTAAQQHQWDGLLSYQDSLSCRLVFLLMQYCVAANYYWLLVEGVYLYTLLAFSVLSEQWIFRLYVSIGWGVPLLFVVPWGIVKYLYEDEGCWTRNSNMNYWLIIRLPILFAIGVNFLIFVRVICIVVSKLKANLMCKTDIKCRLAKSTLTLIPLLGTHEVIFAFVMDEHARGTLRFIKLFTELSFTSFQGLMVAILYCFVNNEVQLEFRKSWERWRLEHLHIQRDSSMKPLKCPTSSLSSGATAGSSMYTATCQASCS
T1 sequence (P27487 whole entry, species assumed): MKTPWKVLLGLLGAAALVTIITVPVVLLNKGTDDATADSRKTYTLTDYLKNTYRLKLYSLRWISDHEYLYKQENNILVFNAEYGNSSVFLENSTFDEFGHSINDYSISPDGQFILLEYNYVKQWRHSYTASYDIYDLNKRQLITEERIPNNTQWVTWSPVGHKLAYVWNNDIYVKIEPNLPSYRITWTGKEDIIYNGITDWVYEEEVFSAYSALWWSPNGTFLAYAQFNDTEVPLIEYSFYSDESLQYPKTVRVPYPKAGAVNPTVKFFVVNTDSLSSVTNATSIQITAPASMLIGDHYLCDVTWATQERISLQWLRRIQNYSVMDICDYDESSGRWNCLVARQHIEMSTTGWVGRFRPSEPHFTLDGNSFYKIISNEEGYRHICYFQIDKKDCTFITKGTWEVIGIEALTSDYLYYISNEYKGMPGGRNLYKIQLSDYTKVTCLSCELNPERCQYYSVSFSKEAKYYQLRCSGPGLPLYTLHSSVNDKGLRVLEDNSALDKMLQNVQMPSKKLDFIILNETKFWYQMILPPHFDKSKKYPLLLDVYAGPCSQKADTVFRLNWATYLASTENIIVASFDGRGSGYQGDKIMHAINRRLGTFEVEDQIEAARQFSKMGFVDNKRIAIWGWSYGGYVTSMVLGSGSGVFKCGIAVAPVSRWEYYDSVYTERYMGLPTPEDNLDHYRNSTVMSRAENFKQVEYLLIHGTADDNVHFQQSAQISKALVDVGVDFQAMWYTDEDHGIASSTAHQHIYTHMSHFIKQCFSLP

GLP-1 (7-36) amide: GLP-1 (7-36) amide
time action [1]: about 50 minutes

GLP-1 (7-36) peptide: wild-type GLP-1 (7-36) peptide (HAEGTFTSDVSSYLEGQAAKEFIAWLVKGR; ends and bridges not checked; UniProt P01275 98-127, looked up, fragment)
stimulation of insulin secretion in RINm cells [2]: stimulates insulin release in RINm cells

GLP-1 mimetibody: GLP-1 peptide (7-36), Gly-Ser linker, J region, IgG1 hinge, CH2 and CH3 construct (SEQ ID NO:2)
resistance to cleavage by DPP-IV relative to the GLP-1 peptide [3]: significantly more resistant to cleavage by DPP-IV | binding to control HEK293 cells (FACS) [4]: not to control HEK293 cells | remained intact in human serum after 24 hours [5]: > 90% | binding to HEK293 cells over-expressing GLP-1R (FACS) [6]: binds to HEK293 cells over-expressing GLP-1R | lowering of fasting blood glucose compared to control animals ([7]; doses ranging from 0.019 to 1.9 nmol): effective in lowering the fasting blood glucose | dose at which maximum glucose lowering effect was achieved ([7]; not enhanced by 1.9 nmol): 0.19 nmol

GLP-1 peptide: GLP-1 peptide used as comparator [reference compound]
blood glucose over 4 hours post-dosing ([7]; db/db mice fasted two hours, intravenous, mimetibody dose 100-fold lower than peptide dose): lowered blood glucose at 30 minutes, but by 60 minutes, the blood glucose began to increase again

exendin-4 peptide: exendin-4 peptide, positive control
stimulation of insulin secretion in RINm cells [2]: stimulates insulin release in RINm cells
